Laboratory results published in publication doi:10.1101/2024.02.29.582594, “Hachiman is a genome integrity sensor” (bioRxiv, 2024).

Biological target: T1, HamB (Escherichia coli, UniProt A0A426EXV0)
T1 construct: gene DU321_04165; full-length HamB alone, N-terminal 10xHis-MBP-TEV, tag cut with TEV; expressed in E. coli BL21-AI
T1 sequence (A0A426EXV0 1-1174): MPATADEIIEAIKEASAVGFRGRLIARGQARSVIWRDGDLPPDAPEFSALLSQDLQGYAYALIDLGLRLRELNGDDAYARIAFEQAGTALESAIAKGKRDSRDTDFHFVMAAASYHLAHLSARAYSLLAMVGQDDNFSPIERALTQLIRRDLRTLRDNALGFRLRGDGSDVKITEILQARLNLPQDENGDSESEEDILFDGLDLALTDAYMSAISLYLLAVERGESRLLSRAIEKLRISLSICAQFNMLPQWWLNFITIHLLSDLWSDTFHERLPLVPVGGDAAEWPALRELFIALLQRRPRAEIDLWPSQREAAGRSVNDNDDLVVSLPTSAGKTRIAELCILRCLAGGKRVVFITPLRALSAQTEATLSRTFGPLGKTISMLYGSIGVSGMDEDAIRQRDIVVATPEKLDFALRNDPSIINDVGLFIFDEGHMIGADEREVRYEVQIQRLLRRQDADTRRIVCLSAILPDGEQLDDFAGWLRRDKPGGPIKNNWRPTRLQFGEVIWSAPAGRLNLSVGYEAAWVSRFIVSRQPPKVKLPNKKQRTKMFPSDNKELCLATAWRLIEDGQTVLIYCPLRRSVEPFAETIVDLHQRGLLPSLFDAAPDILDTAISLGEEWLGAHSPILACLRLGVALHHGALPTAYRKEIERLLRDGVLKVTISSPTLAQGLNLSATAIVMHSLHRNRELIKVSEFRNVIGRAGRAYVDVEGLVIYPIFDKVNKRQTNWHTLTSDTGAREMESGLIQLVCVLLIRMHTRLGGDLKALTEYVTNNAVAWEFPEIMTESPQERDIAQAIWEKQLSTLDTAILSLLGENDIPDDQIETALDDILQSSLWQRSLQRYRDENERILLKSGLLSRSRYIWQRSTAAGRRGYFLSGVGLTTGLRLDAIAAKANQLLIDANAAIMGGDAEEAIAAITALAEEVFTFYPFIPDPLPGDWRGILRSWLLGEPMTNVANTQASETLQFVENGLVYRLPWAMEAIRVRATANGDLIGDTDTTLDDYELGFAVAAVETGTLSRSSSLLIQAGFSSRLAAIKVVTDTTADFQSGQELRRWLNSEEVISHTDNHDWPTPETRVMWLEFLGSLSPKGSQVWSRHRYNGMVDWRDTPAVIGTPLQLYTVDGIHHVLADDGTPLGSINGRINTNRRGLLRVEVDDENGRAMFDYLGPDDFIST
Experiment: malachite green phosphate release assay
Assay type: biochemical
Conditions: 40 nM HamB, 100 nM ssDNA, 1 mM ATP, 2 mM MgSO4, pH 8.8, 37 °C, 30 min

## Nc1ncnc2c1ncn2[C@@H]1O[C@H](COP(=O)(O)OP(=O)(O)OP(=O)(O)O)[C@@H](O)[C@H]1O [ATP]
  malachite green phosphate release assay: we found strong HamB ATPase activity in the presence of single-stranded DNA
